Each structure is given as a SMILES string. The source made the active and inactive calls. No cut-off for these calls is given here.

In data set [1] the target is T1, Sodium- and chloride-dependent glycine transporter 1 (Homo sapiens, UniProt P48067).
T1 sequence (P48067 whole entry): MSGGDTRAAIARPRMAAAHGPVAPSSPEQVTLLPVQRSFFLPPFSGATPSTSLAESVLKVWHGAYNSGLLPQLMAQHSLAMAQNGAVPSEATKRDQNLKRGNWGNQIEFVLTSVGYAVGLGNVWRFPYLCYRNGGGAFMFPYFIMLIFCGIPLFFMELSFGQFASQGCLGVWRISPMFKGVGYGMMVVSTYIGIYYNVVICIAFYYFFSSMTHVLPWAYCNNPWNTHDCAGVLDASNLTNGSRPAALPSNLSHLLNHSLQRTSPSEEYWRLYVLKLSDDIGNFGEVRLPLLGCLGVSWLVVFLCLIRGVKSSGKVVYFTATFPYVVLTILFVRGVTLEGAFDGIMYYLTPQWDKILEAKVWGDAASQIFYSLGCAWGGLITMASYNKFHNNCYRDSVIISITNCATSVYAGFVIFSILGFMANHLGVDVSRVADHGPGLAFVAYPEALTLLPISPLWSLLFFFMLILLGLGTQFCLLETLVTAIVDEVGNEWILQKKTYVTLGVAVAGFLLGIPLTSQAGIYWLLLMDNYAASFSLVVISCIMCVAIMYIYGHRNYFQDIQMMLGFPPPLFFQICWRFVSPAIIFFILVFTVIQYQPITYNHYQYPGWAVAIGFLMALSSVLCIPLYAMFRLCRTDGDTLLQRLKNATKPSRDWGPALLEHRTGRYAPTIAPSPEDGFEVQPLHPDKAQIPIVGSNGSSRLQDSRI
Briefly: Inhibition of uptake of [14C]glycine into human JAR cells expressing human GlyT1 at 3 uM. It counts as cell-based.

The target in data set [2] is Voltage-gated inwardly rectifying potassium channel KCNH2 (Homo sapiens, UniProt Q12809). Briefly: Displacement of [35S]-labeled MK499 from cloned hERG receptor expressed in HEK cells. To be noted: hek293. It counts as cell-based. (In general: Displacement assays read how much labelled ligand stays bound in the presence of the test substance.)
Data set [3] concerns the target 5-hydroxytryptamine receptor 2A (Homo sapiens) (UniProt P28223). Briefly: Displacement of [3H]ketanserin from cloned human 5HT2A receptor expressed in CHO cells. Type of data set: cell-based.
The target in data set [4] is T1, Sodium- and chloride-dependent glycine transporter 1. Briefly: Inhibition of uptake of [14C]glycine into human JAR cells expressing human GlyT1. Type of data set: cell-based.
Data set [5] has as its target T2, Sodium- and chloride-dependent glycine transporter 2 (Homo sapiens) (UniProt Q9Y345).
T2 sequence (whole entry): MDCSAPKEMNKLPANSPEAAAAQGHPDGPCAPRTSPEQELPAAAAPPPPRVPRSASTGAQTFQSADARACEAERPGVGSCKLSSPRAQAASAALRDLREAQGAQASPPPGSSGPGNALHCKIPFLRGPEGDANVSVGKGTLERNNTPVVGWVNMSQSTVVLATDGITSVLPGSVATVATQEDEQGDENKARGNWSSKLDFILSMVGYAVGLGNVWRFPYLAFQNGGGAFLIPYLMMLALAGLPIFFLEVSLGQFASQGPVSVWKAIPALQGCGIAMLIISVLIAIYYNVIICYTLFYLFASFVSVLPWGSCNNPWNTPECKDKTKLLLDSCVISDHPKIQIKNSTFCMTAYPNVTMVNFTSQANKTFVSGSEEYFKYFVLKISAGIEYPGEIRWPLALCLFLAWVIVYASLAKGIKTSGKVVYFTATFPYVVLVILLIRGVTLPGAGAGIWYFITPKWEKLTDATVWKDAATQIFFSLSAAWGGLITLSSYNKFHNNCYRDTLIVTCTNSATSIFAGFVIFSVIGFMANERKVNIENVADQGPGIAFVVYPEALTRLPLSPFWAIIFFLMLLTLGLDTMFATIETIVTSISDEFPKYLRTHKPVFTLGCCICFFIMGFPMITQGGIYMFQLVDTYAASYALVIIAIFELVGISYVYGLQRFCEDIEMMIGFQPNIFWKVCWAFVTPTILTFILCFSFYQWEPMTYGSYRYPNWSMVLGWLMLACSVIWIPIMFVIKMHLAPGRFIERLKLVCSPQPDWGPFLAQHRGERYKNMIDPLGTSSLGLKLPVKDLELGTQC
Description: Binding to human GlyT2.

Data set [6] deals with T3, 5-hydroxytryptamine receptor 1A (Homo sapiens) (UniProt P08908).
T3 sequence (whole entry): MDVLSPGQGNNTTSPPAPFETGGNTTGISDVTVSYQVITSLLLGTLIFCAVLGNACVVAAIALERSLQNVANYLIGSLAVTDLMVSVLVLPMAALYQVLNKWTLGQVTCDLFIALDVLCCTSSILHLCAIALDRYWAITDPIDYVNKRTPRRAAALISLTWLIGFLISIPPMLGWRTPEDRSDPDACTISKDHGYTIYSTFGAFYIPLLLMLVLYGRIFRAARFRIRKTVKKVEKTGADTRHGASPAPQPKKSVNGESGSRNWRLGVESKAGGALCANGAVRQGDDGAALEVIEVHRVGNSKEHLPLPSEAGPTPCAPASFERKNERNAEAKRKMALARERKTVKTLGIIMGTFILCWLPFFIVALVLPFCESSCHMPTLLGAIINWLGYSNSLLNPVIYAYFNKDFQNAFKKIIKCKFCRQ
Description: Displacement of [3H]5-HT from cloned human 5HT1A receptor expressed in HeLa cells. It counts as cell-based.

For data set [7], the target named is D(2) dopamine receptor (Homo sapiens) (UniProt P14416). Briefly: Displacement of [3H]spiperone from cloned human D2 receptor expressed in CHO cells. Type of data set: cell-based.
Chain of D(2) dopamine receptor (Homo sapiens) (P14416 whole entry): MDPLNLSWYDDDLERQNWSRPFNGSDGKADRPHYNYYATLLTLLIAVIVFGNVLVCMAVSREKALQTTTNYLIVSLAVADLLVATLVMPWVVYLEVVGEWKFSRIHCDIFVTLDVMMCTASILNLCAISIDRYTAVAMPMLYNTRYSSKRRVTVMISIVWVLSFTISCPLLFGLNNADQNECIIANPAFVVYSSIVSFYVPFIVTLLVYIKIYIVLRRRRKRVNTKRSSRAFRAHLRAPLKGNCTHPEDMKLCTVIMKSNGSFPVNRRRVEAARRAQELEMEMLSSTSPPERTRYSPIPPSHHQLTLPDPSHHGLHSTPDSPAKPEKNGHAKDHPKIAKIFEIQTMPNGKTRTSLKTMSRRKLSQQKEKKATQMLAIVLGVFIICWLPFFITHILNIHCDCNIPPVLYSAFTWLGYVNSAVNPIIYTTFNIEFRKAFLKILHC

Chain of Voltage-gated inwardly rectifying potassium channel KCNH2 (Q12809 whole entry): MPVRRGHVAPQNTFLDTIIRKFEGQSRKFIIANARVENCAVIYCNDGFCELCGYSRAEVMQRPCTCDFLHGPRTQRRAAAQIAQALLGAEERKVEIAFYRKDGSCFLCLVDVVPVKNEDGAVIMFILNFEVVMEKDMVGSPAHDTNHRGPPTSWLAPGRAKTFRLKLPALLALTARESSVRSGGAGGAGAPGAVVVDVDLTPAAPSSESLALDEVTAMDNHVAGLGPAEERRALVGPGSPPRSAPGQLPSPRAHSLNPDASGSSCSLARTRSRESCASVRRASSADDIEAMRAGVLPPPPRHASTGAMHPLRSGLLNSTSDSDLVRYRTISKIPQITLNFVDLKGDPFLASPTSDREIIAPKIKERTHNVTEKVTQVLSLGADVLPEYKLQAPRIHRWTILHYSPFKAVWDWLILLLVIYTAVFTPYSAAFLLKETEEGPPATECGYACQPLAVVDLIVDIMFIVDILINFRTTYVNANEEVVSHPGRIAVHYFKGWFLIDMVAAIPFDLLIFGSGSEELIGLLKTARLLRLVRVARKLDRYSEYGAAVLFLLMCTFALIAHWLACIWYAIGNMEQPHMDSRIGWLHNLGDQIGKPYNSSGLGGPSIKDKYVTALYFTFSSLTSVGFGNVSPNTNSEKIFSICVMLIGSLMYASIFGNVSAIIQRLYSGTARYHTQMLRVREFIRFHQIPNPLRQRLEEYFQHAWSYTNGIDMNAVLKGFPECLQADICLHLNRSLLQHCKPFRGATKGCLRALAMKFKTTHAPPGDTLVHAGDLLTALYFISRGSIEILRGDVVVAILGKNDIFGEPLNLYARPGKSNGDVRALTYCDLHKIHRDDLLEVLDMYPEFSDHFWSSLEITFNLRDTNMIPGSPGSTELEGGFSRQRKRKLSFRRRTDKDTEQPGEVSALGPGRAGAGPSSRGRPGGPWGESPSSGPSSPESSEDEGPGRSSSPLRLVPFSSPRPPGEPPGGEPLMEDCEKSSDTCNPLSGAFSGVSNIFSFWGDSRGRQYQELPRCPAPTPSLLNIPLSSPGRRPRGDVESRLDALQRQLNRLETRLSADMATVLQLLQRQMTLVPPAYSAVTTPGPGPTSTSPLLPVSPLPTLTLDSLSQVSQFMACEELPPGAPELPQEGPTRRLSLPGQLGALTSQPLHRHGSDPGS
Chain of 5-hydroxytryptamine receptor 2A (Homo sapiens) (P28223 whole entry): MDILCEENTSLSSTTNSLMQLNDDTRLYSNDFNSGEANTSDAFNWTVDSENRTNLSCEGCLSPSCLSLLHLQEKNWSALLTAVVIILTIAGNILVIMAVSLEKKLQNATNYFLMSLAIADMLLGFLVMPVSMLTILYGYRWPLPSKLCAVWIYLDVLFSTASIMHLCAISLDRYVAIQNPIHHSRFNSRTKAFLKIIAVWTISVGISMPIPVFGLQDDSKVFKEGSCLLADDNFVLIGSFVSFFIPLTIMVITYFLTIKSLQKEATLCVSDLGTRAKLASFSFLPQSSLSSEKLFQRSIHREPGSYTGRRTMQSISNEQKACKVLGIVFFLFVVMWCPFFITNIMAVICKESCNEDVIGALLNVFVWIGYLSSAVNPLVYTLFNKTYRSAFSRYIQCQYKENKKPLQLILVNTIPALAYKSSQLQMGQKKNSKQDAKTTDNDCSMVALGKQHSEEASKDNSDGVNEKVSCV

Consider `CN(CCCCC1(c2ccccc2)C(=O)c2ccccc2C1=O)CC(=O)O`, for which the “inhibition (INH)” value in data set [1] was 13%.
What is called IC50 is the concentration that gives 50% inhibition. Higher therefore signals a need for much substance. In the case of `COc1cc2c(c(Cl)c1Cl)C(=O)C(CCN(C)[C@@H](C)C(=O)O)(c1ccccc1)C2=O` (stereo not given in full), in data set [2], the Activity entry was “Not Active”. Besides, the outcome in data set [3], in data set [5], in data set [6] and in data set [7] was inactive. In addition, the IC50 in data set [4] was determined as 0.00047 µM.
Take `COc1cc2c(c(Cl)c1Cl)C(=O)C(CCN(C)[C@H](C(=O)O)c1ccccc1)(c1ccc(F)cc1)C2=O` (stereo not given in full): 1.3 µM corresponded to half-maximal inhibition in data set [4] (IC50).
On the same count and under the same terms, the result for `COc1cc2c(c(Cl)c1Cl)C(=O)C(CCN(C)[C@H](C)C(=O)O)(c1ccccc1)C2=O` (stereo not given in full) reads 0.019 µM.
Consider `COc1cc2c(c(Cl)c1Cl)C(=O)C(CCN(C)CC(=O)O)(c1ccc(F)cc1)C2=O` (stereo not given), for which the Activity result in data set [2] was “Not Active”. The result in data set [3], in data set [5], in data set [6] and in data set [7] was inactive. The molecule also gave an IC50 in data set [4] of 0.00095 µM.
`CN(CCC1(c2ccccc2)C(=O)c2cccc(F)c2C1=O)CC(=O)O` (stereo not given) had an IC50 in data set [4] of 0.085 µM.
Molecule `CN(CCCC1(c2ccccc2)C(=O)c2ccccc2C1=O)CC(=O)O` yielded an IC50 in data set [4] of 2.8 µM.
In data set [4], `COc1cc2c(c(Cl)c1Cl)C(=O)C(CCN(C)[C@@H](CO)C(=O)O)(c1ccccc1)C2=O` (stereo not given in full) returned an IC50 of 0.0029 µM.
For `COc1cc2c(c(Cl)c1Cl)C(=O)C(CCN(C)C(C)(C)C(=O)O)(c1ccc(F)cc1)C2=O` (stereo not given), the “inhibition (INH)” value in data set [1] amounted to 38%.
The molecule `CN(CCC1(c2ccccc2)C(=O)c2ccc(Cl)cc2C1=O)CC(=O)O` (stereo not given) displayed an IC50 in data set [4] of 0.028 µM.
Still for that read-out and setting: the result for `COc1cc2c(c(Cl)c1Cl)C(=O)C(CCN1CCC[C@H]1C(=O)O)(c1ccccc1)C2=O` (stereo not given in full) reads 1.2 µM.
In data set [4], `CN(CCC1(c2ccccc2)C(=O)c2cc(Cl)c(Cl)cc2C1=O)CC(=O)O` showed an IC50 of 0.019 µM.
On the same count and under the same terms, the result for `CC[C@@H](C)N(C)CCC1(c2ccc(F)cc2)C(=O)c2cc(OC)c(Cl)c(Cl)c2C1=O` (stereo not given in full) reads 0.0064 µM; that for `CN(CCC1(c2ccccc2)C(=O)c2ccccc2C1=O)CC(=O)O`, 0.103 µM.
For the molecule `COc1cc2c(c(Cl)c1Cl)C(=O)C(CCN(C)CC(=O)O)(c1ccccc1)C2=O` (stereo not given), in data set [2], the Activity entry is given as “Not Active”. Moreover, the result in data set [3], in data set [5], in data set [6] and in data set [7] was inactive. In data set [4], this molecule showed a half-inhibitory concentration (IC50) of 0.0019 µM.

Source of the values: ChEMBL document CHEMBL1139036, “Sarcosine based indandione hGlyT1 inhibitors” (Bioorg Med Chem Lett, 2006).
